From ChEMBL document CHEMBL4330116, “Harzianoic acids A and B, new natural scaffolds with inhibitory effects against hepatitis C virus” (Bioorg Med Chem, 2019)

Tests used:
[1] = Cytotoxicity against human Huh7.5 cells after 72 hrs by MTT assay; type: cell-based
[2] = Selectivity index, ratio of CC50 for human Huh7.5 cells to EC50 for antiviral activity against HCV genotype 2a JFH/JC1 infected in human Huh7.5 cells; type: toxicity, cell-based; details: read-out: Ratio CC50/EC50
[3] = biological target: T1, CD81 antigen (Homo sapiens) (UniProt P60033); assay: Binding affinity to CD81 (unknown origin) assessed as association rate constant by surface plasmon resonance assay
T1 sequence (whole entry): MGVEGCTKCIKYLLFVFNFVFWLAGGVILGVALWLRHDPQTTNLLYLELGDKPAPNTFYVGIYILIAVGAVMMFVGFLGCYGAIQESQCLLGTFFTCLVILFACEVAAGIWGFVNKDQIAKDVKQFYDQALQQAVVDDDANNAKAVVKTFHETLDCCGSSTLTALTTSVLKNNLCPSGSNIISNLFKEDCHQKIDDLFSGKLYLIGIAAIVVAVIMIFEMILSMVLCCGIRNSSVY

Hepatitis C virus [4] = assay: Antiviral activity against HCV genotype 2a JFH/JC1 infected in human Huh7.5 cells assessed as inhibition of viral RNA replication after 72 hrs by qRT-PCR analysis; type: functional, organism-based, Hepacivirus hominis; details: subtype 2a JFH/JC1, Huh7.5, 72 h
CD81 antigen = biological target: T2, CD81 antigen (Homo sapiens, UniProt P60033); assay: Binding affinity to CD81 (unknown origin) by surface plasmon resonance assay
T2 sequence (P60033 whole entry): T1 sequence (whole entry)

Hepatitis C virus [5] = assay: Antiviral activity against HCV pseudoparticles infected in human Huh7.5 cells infected with HCV pseudoparticles expressed in 293T cells with plasmid encoding HCV E1, E2, envelope and Vpr deficient HIV vector carrying luciferase reporter gene inserted into Nef position assessed as inhibition of pseudoparticle entry after 72 hrs by luciferase reporter gene assay; type: functional, organism-based, Hepacivirus hominis; details: for inhibition: Hepacivirus hominis
[6] = biological target: T1, CD81 antigen (Homo sapiens); assay: Binding affinity to CD81 (unknown origin) assessed as disruption of interaction between CD81 the HCV envelope protein E2 at 5 uM by surface plasmon resonance assay relative to untreated control

SMILES | CC50 at 72 h [1] | selectivity ratio [2] | Ka [3] | EC50 (Hepatitis C virus [4]) | Kd (CD81 antigen) | IC50 (Hepatitis C virus [5]) | inhibition (Hepatitis C virus [5]) | Ratio [6]
CCC[C@H](NC(=O)[C@@H]1[C@H]2CCC[C@H]2CN1C(=O)[C@@H](NC(=O)[C@@H](NC(=O)c1cnccn1)C1CCCCC1)C(C)(C)C)C(=O)C(=O)NC1CC1 [TELAPREVIR] | 26.5 µM | 491 | – | – | – | – | – | –
C/C(=C\CC[C@]1(C)[C@@H](C(=O)O)C[C@H]1[C@](C)(O)C(=O)O)C(=O)O | 74.3 µM | 4 | 3.81e+07 M⁻¹ s⁻¹ | 20.4 µM | 0.0665 µM | 42.9 µM | Dose-dependent effect | –
CC(C)OC(=O)[C@H](C)NP(=O)(OC[C@H]1O[C@@H](n2ccc(=O)[nH]c2=O)[C@](C)(F)[C@@H]1O)Oc1ccccc1 (stereo not given in full) | > 200 µM | > 3120 | – | 0.06 µM | – | – | – | –
CC(=O)[C@@H]1C[C@H](C(=O)O)[C@@]1(C)CC/C=C(\C)C(=O)O | 75.3 µM | 3 | 5.33e+06 M⁻¹ s⁻¹ | 24.5 µM | 0.0378 µM | 35.5 µM | Dose-dependent effect | 33
